Values quoted from earlier work in patent US20150148324A1 (VALPHARMA INTERNATIONAL S.P.A., priority 2012, published 2015).

System: uterine fibroma
Settings: daily oral 5 mg for 6 months, versus higher doses

## CC#C[C@]1(O)CC[C@H]2[C@@H]3CCC4=CC(=O)CCC4=C3[C@@H](c3ccc(N(C)C)cc3)C[C@@]21C [Mifepristone]
  effect in the treatment of uterine fibroma: effects comparable with those of higher doses of Mifepristone
